From PubChem BioAssay (NCI)
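GI50 = concentration required for 50% inhibition of growth. The concentration for full growth arrest is given as TGI.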

Columns and labels:
Experiment in all cases: NCI anticancer screen, dose series, 384-well format
UACC-257 melanoma = tested on: UACC-257 melanoma
UACC-62 melanoma = tested on: UACC-62 melanoma
OVCAR-8 ovarian = tested on: OVCAR-8 ovarian
RXF 393 renal = tested on: RXF 393 renal
NCI-H322M lung = tested on: NCI-H322M lung
DU-145 prostate = tested on: DU-145 prostate
OVCAR-4 ovarian = tested on: OVCAR-4 ovarian
CCRF-CEM leukemia = tested on: CCRF-CEM leukemia
OVCAR-3 ovarian = tested on: OVCAR-3 ovarian
UO-31 renal = tested on: UO-31 renal
SF-295 CNS = tested on: SF-295 CNS
BT-549 breast = tested on: BT-549 breast
A549 NSCLC = tested on: A549 NSCLC
NCI-H226 lung = tested on: NCI-H226 lung
EKVX NSCLC = tested on: EKVX NSCLC
NCI-H23 lung = tested on: NCI-H23 lung
MDA-MB-231 breast = tested on: MDA-MB-231 breast
MDA-MB-435 melanoma = tested on: MDA-MB-435 melanoma
HOP-62 NSCLC = tested on: HOP-62 NSCLC
MOLT-4 leukemia = tested on: MOLT-4 leukemia
HS 578T breast = tested on: HS 578T breast
HL-60(TB) leukemia = tested on: HL-60(TB) leukemia
HT29 colon = tested on: HT29 colon
MDA-MB-468 breast = tested on: MDA-MB-468 breast
SK-MEL-28 melanoma = tested on: SK-MEL-28 melanoma
HCC-2998 colon = tested on: HCC-2998 colon
SF-268 CNS = tested on: SF-268 CNS
SR leukemia = tested on: SR leukemia
SK-OV-3 ovarian = tested on: SK-OV-3 ovarian
SF-539 CNS = tested on: SF-539 CNS
786-0 renal = tested on: 786-0 renal
MCF7 breast = tested on: MCF7 breast
PC-3 prostate = tested on: PC-3 prostate
CAKI-1 renal = tested on: CAKI-1 renal
A498 renal = tested on: A498 renal
TK-10 renal = tested on: TK-10 renal
K-562 leukemia = tested on: K-562 leukemia
M14 melanoma = tested on: M14 melanoma
NCI-H522 lung = tested on: NCI-H522 lung
T-47D breast = tested on: T-47D breast
MALME-3M melanoma = tested on: MALME-3M melanoma
HCT-116 colon = tested on: HCT-116 colon
SNB-75 CNS = tested on: SNB-75 CNS
U251 glioblastoma = tested on: U251 glioblastoma
HOP-92 NSCLC = tested on: HOP-92 NSCLC
SK-MEL-5 melanoma = tested on: SK-MEL-5 melanoma
SW-620 colon = tested on: SW-620 colon

SMILES: CCS(=O)(=O)N1CCC(C(C)n2c(C)c(C(=O)NCc3c(OC)cc(C)[nH]c3=O)c3ccccc32)CC1 (centres undefined)
- GI50 (UACC-257 melanoma): > 100 µM
- TGI (UACC-257 melanoma): > 100 µM
- GI50 (UACC-62 melanoma): > 100 µM
- TGI (UACC-62 melanoma): > 100 µM
- GI50 (OVCAR-8 ovarian): > 100 µM
- TGI (OVCAR-8 ovarian): > 100 µM
- GI50 (RXF 393 renal): > 100 µM
- TGI (RXF 393 renal): > 100 µM
- GI50 (NCI-H322M lung): > 100 µM
- TGI (NCI-H322M lung): > 100 µM
- GI50 (DU-145 prostate): > 100 µM
- TGI (DU-145 prostate): > 100 µM
- GI50 (OVCAR-4 ovarian): > 100 µM
- TGI (OVCAR-4 ovarian): > 100 µM
- GI50 (CCRF-CEM leukemia): > 100 µM
- TGI (CCRF-CEM leukemia): > 100 µM
- GI50 (OVCAR-3 ovarian): > 100 µM
- TGI (OVCAR-3 ovarian): > 100 µM
- GI50 (UO-31 renal): > 100 µM
- TGI (UO-31 renal): > 100 µM
- GI50 (SF-295 CNS): > 100 µM
- TGI (SF-295 CNS): > 100 µM
- GI50 (BT-549 breast): > 100 µM
- TGI (BT-549 breast): > 100 µM
- GI50 (A549 NSCLC): > 100 µM
- TGI (A549 NSCLC): > 100 µM
- GI50 (NCI-H226 lung): > 100 µM
- TGI (NCI-H226 lung): > 100 µM
- GI50 (EKVX NSCLC): > 100 µM
- TGI (EKVX NSCLC): > 100 µM
- GI50 (NCI-H23 lung): > 100 µM
- TGI (NCI-H23 lung): > 100 µM
- GI50 (MDA-MB-231 breast): > 100 µM
- TGI (MDA-MB-231 breast): > 100 µM
- GI50 (MDA-MB-435 melanoma): > 100 µM
- TGI (MDA-MB-435 melanoma): > 100 µM
- GI50 (HOP-62 NSCLC): > 87.9 µM
- TGI (HOP-62 NSCLC): > 100 µM
- GI50 (MOLT-4 leukemia): 42.4 µM
- TGI (MOLT-4 leukemia): > 100 µM
- GI50 (HS 578T breast): > 100 µM
- TGI (HS 578T breast): > 100 µM
- GI50 (HL-60(TB) leukemia): > 100 µM
- TGI (HL-60(TB) leukemia): > 100 µM
- GI50 (HT29 colon): > 100 µM
- TGI (HT29 colon): > 100 µM
- GI50 (MDA-MB-468 breast): 40 µM
- TGI (MDA-MB-468 breast): > 100 µM
- GI50 (SK-MEL-28 melanoma): > 100 µM
- TGI (SK-MEL-28 melanoma): > 100 µM
- GI50 (HCC-2998 colon): > 100 µM
- TGI (HCC-2998 colon): > 100 µM
- GI50 (SF-268 CNS): > 42.6 µM
- TGI (SF-268 CNS): > 96.3 µM
- GI50 (SR leukemia): > 100 µM
- TGI (SR leukemia): > 100 µM
- GI50 (SK-OV-3 ovarian): > 100 µM
- TGI (SK-OV-3 ovarian): > 100 µM
- GI50 (SF-539 CNS): > 100 µM
- TGI (SF-539 CNS): > 100 µM
- GI50 ([…]-0 renal): > 100 µM
- TGI (786-0 renal): > 100 µM
- GI50 (MCF7 breast): > 78.3 µM
- TGI (MCF7 breast): > 100 µM
- GI50 (PC-3 prostate): > 100 µM
- TGI (PC-3 prostate): > 100 µM
- GI50 (CAKI-1 renal): > 100 µM
- TGI (CAKI-1 renal): > 100 µM
- GI50 (A498 renal): > 100 µM
- TGI (A498 renal): > 100 µM
- GI50 (TK-10 renal): > 100 µM
- TGI (TK-10 renal): > 100 µM
- GI50 (K-562 leukemia): > 100 µM
- TGI (K-562 leukemia): > 100 µM
- GI50 (M14 melanoma): > 100 µM
- TGI (M14 melanoma): > 100 µM
- GI50 (NCI-H522 lung): > 100 µM
- TGI (NCI-H522 lung): > 100 µM
- GI50 (T-47D breast): > 64.5 µM
- TGI (T-47D breast): > 100 µM
- GI50 (MALME-3M melanoma): > 100 µM
- TGI (MALME-3M melanoma): > 100 µM
- GI50 (HCT-116 colon): > 100 µM
- TGI (HCT-116 colon): > 100 µM
- GI50 (SNB-75 CNS): > 100 µM
- TGI (SNB-75 CNS): > 100 µM
- GI50 (U251 glioblastoma): > 100 µM
- TGI (U251 glioblastoma): > 100 µM
- GI50 (HOP-92 NSCLC): > 100 µM
- TGI (HOP-92 NSCLC): > 100 µM
- GI50 (SK-MEL-5 melanoma): > 100 µM
- TGI (SK-MEL-5 melanoma): > 100 µM
- GI50 (SW-620 colon): > 100 µM
- TGI (SW-620 colon): > 100 µM
